From PMC12948223, “HSP70 Interactome‐Mediated Proteolysis Targeting Chimera (HSP70‐PROTAC) for Ferroptosis‐Driven Cancer Treatment” (Advanced Science, 2025)

Assays:
[1] = target: T1, Hsc70 in the presence of GPX4 protein (Homo sapiens, UniProt P11142+P36969); test: SPR ternary-complex binding (GDAz-3 preincubated with GPX4, Hsc70 immobilized)
T1 construct: purchased MedChemExpress (Hsc70); Cayman (GPX4) HY-P73915A; 26 906
Method: The SPR data was generated by our Shared Instrumentation Core Facility at the Hangzhou Institute of Medicine (HIM), Chinese Academy of Sciences. The in vitro binding affinity of compound GDAz‐3 to recombinant proteins (Hsc70, MedChemExpress, #HY‐P73915A; GPX4, Cayman, Item No. 26 906) was evaluated using a Biacore 8K system (Cytiva (GE)) with the method of LMW multi‐cycle kinetics/affinity. Pipelines and chips were flushed with PBS (pH 7.4) running buffer, and then, human Hsc70 was immobilized on a CM5 sensor chip. Analysis was performed at a flow rate of 30 µL min^−1 at 25 °C with the injection of incremental concentrations of compounds dissolved in buffer solution (the final concentration of DMSO was 5%). For ternary‐complex binding measurements, Hsc70 was immobilized on a CM5 sensor chip, and compound GDAz‐3 at a concentration of 1 µM was preincubated with GPX4. The binding and dissociation durations were recorded as response unit values for 120 and 120 s in succession, respectively. Finally, the data were analyzed by Biacore evaluation software with the method of LMW multi‐cycle kinetics/affinity.

[2] = Relative drug biodistribution in HT1080 xenograft mice (LC-MS/MS); format: in vivo, nude mice; conditions: 50 mg/kg, 12 h, n = 1
Source text: In addition, the tumor samples from the six treatment groups were randomly collected and probed for the levels of GPX4, and 4‐HNE (4‐hydroxynonenal, a lipid peroxidation marker) by immunohistochemistry (IHC) staining (Figure 7G). […] Collectively, the HSP70‐PROTAC GDAz‐3 has been confirmed as an effective ferroptosis‐inducing agent, which can degrade GPX4 both in vitro and in vivo via UPS and CMA dual processes.
GDAz‐3 was intravenously injected into an HT1080‐bearing xenograft tumor mouse model at 50 mg kg^−1. After 12 h of treatment, samples of tumor tissue and major organs, including the heart, liver, spleen, lung, kidney, and intestine, were collected. After weighing, these samples were processed into homogenates, and 500 µL of cold methanol was added. After thorough mixing, the supernatant was generated by centrifugation (4 °C, 12 000 rpm, 15 min), and then analyzed by liquid chromatography‐tandem mass spectrometry (Agilent 6495C Triple Quadrupole LC/MS). In brief, a volume of 1 µL from each sample was extracted and injected into a Waters Acquity Premmier BEH C18 (2.1 × 50 mm, 1.7 µm) column. The solvent delivery module was used to deliver an HPLC gradient of 20–95% B over 7 min (A: 0.1% formic acid in water, B: acetonitrile) at a flow rate of 0.3 mL min^−1. […] The quantification was performed based on peak area. […]

GPX4 = target: T2, GPX4 (Homo sapiens, UniProt P36969); test: GPX4 degradation by western blot in MDA-MB-231 cells; format: cell-based; design: determine the changes in the endogenous levels of GPX4 by western blot assay; endogenous in cells; conditions: 24 h
T2 sequence (P36969 1-170 isoform P36969-2): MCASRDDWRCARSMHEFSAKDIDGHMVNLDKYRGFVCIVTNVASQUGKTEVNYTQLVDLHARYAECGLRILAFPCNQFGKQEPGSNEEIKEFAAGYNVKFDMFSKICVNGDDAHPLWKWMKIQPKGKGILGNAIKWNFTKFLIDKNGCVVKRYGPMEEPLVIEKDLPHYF
Method: To further confirm this degradation efficacy, an in‐cell western (ICW) assay, a quantitative immunofluorescence cell‐based technique, was performed to quantify the relative expression level of GPX4 after treatment with GDAz‐3 for 24 h. […] Given the promising GPX4 degradation activity of GDAz‐3, we extended our evaluation to additional ferroptosis‐sensitive cell lines, including triple‐negative breast cancer cells (MDA‐MB‐231) and melanoma cells (mouse B16‐F10). […] Based on the observation that GDAz‐3 was particularly effective in HT1080 cells, we selected this cell line for further degradation mechanism and ferroptosis pharmacodynamics studies.
Cells were seeded at a density of 4 × 10^5 cells well^−1 in 6‐well plates and allowed to incubate overnight. Cells were incubated with the indicated treatments. Thereafter, the cells were collected and lysed with RIPA buffer containing serine protease and phosphatase inhibitors for 30 min on ice. Proteins were quantified by using a BCA protein assay kit (Beyotime). […] Ultimately, the membrane was washed five times, and the antibody‐protein complexes were visualized using an ECL luminescence reagent (Biosharp, Shanghai, China). The relative intensities of the bands were analyzed by ImageJ and normalized to a loading control.

T1 sequence (P11142 whole entry, one chain of several): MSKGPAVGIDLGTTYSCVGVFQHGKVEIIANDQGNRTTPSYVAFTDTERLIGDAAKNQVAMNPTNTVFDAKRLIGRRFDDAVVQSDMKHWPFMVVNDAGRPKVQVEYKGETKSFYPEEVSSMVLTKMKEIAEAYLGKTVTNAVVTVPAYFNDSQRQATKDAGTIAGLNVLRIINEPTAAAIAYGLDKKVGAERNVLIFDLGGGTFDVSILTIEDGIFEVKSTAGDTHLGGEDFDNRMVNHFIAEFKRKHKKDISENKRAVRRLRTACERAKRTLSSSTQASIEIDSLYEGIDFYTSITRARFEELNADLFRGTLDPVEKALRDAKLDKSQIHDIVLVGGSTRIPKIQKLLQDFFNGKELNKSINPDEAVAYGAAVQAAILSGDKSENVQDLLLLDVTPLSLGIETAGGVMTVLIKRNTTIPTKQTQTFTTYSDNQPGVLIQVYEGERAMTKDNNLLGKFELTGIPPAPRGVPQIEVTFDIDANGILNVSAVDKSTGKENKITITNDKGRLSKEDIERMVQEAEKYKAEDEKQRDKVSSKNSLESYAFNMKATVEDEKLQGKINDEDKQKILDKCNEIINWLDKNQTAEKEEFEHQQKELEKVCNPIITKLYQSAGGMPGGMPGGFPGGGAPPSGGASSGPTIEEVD

In the case of COc1ccc(-c2nc(-c3cc(C(F)(F)F)cc(C(F)(F)F)c3)n(Cc3ccc(C(=O)NCCOCCOCCOCCn4cc(COc5ccc(N(C(=O)CCl)C(C(=O)NCCc6ccccc6)c6cccs6)cc5Cl)nn4)cc3)c2-c2ccc(OC)cc2)cc1 (stereo not shown) [GDAz-3, 4-((2-(3,5-bis(trifluoromethyl)phenyl)-4,5-bis(4-methoxyphenyl)-1H-imidazol-1-yl)methyl)-N-(2-(2-(2-(2-(4-((2-chloro-4-(2-chloro-N-(2-oxo-2-(phenethylamino)-1-(thiophen-2-yl)ethyl)acetamido)phenoxy)methyl)-1H-1,2,3-triazol-1-yl)ethoxy)ethoxy)ethoxy)ethyl)benzamide], the Kd ([1]; SPR, 1 µM GDAz-3 preincubated with GPX4, immobilized Hsc70) is reported as 23.9 nM, the “Cooperativity (α)” value ([1]; ternary complex Hsc70/GDAz-3/GPX4) is reported as 0.75 and the “Concentration in tumor tissue relative to other tissues” value [2] is reported as “significantly higher than that in other tissues”. The GPX4 degradation (GPX4) was “effectively induce the degradation of GPX4 to varying extents”.
